Data as given in ChEMBL document CHEMBL1153258, “Synthesis and antiviral activity of 3-substituted imidazo[1,2-a]pyridines” (Bioorg Med Chem Lett, 1994).

Columns and labels:
[1] = tested on: HEL; experiment: Cytotoxicity (to alter cell morphology) against Cytomegalovirus in human embryonic lung (HEL) cells; assay type: functional
[2] = tested on: HEL; experiment: Antiviral activity against Cytomegalovirus (Davis strain) to reduce plaque formation in human embryonic lung (HEL) cells; assay type: functional, cell-based
[3] = tested on: E6SM; experiment: Antiviral activity (to reduce virus-induced cytopathogenicity) against Herpes simplex virus-1(KOS) in E6SM cell cultures; assay type: functional; conditions: Homo sapiens
[4] = Cytotoxicity (to reduce cell growth) against Varicella-Zoster virus in human embryonic lung (HEL) cells; assay type: cell-based
[5] = tested on: Vero; experiment: Antiviral activity (to reduce virus-induced cytopathogenicity) against Parainfluenza-3 virus in vero cells; assay type: functional; conditions: Chlorocebus sabaeus
[6] = tested on: HeLa; experiment: Antiviral activity (to reduce virus-induced cytopathogenicity) against Coxsackie virus B4 in HeLa cells; assay type: functional; conditions: Homo sapiens
[7] = tested on: HEL; experiment: Antiviral activity against thymidine kinase-negative (TK-) YS/R strain of Varicella zoster virus to reduce plaque formation in human embryonic lung (HEL) cells; assay type: functional, cell-based
[8] = tested on: E6SM; experiment: Antiviral activity (to reduce virus-induced cytopathogenicity) against Herpes simplex virus-1 TK-VMW1837 in E6SM cell cultures; assay type: functional; conditions: Homo sapiens
[9] = tested on: HEL; experiment: Antiviral activity against thymidine kinase-negative (TK-) O7/1 strain of Varicella zoster virus to reduce plaque formation in human embryonic lung (HEL) cells; assay type: functional, cell-based
[10] = tested on: E6SM; experiment: Cytotoxicity (to alter cell morphology) against E6SM cell cultures; assay type: functional; conditions: Homo sapiens
[11] = tested on: HEL; experiment: Antiviral activity against Cytomegalovirus (AD-169 strain) to reduce plaque formation in human embryonic lung (HEL) cells; assay type: functional, cell-based
[12] = tested on: E6SM; experiment: Antiviral activity (to reduce virus-induced cytopathogenicity) against Vesicular stomatitis virus in E6SM cell cultures; assay type: functional; conditions: Homo sapiens
[13] = tested on: E6SM; experiment: Antiviral activity (to reduce virus-induced cytopathogenicity) against Herpes simplex virus-2 (G) in E6SM cell cultures; assay type: functional; conditions: Homo sapiens
[14] = tested on: Vero; experiment: Antiviral activity (to reduce virus-induced cytopathogenicity) against Reovirus-1 in vero cells; assay type: functional; conditions: Chlorocebus sabaeus
[15] = tested on: HeLa; experiment: Cytotoxicity (to alter cell morphology) against HeLa cells; assay type: functional; conditions: Homo sapiens
[16] = tested on: HEL; experiment: Antiviral activity against thymidine kinase-positive (TK+) YS strain of Varicella zoster virus to reduce plaque formation in human embryonic lung (HEL) cells; assay type: functional, cell-based
[17] = tested on: E6SM; experiment: Antiviral activity (to reduce virus-induced cytopathogenicity) against Vaccinia virus in E6SM cell cultures; assay type: functional; conditions: Homo sapiens
[18] = tested on: HeLa; experiment: Antiviral activity (to reduce virus-induced cytopathogenicity) against Vesicular stomatitis virus in HeLa cells; assay type: functional; conditions: Homo sapiens
[19] = tested on: Vero; experiment: Antiviral activity (to reduce virus-induced cytopathogenicity) against forest virus in vero cells; assay type: functional; conditions: Chlorocebus sabaeus
[20] = tested on: HeLa; experiment: Antiviral activity (to reduce virus-induced cytopathogenicity) against Polio virus-I in HeLa cells; assay type: functional; conditions: Homo sapiens
[21] = tested on: HEL; experiment: Cytotoxicity (to alter cell morphology) against Varicella-Zoster virus in human embryonic lung (HEL) cells; assay type: functional
[22] = Cytotoxicity (to reduce cell growth) against Cytomegalovirus in human embryonic lung (HEL) cells; assay type: cell-based
[23] = tested on: HEL; experiment: Antiviral activity against thymidine kinase-positive (TK+) OKA strain of Varicella zoster virus to reduce plaque formation in human embryonic lung (HEL) cells; assay type: functional, cell-based
[24] = tested on: Vero; experiment: Antiviral activity (to reduce virus-induced cytopathogenicity) against Sindbis virus in vero cells; assay type: functional; conditions: Chlorocebus sabaeus
[25] = tested on: E6SM; experiment: Antiviral activity (to reduce virus-induced cytopathogenicity) against Herpes simplex virus-1 TK-B2006 in E6SM cell cultures; assay type: functional; conditions: Homo sapiens
[26] = tested on: Vero; experiment: Antiviral activity (to reduce virus-induced cytopathogenicity) against Coxsackie virus in vero cells; assay type: functional; conditions: Chlorocebus sabaeus
[27] = tested on: Vero; experiment: Minimum cytotoxic concentration (to alter cell morphology) against vero cells; assay type: functional; conditions: Chlorocebus sabaeus

OCCOCc1c(-c2ccccc2)nc2ccccn12
> 40 µg/mL: IC50 [2] | IC50 [7] | IC50 [9] | IC50 [11] | IC50 [16] | MCC [21] | IC50 [23]
> 200 µg/mL: MIC [3] | MIC [6] | MCC [10] | MIC [13] | MIC [14] | MIC [17] | MIC [18] | MIC [19] | MIC [20] | MIC [24] | MIC [26]
100 µg/mL: MCC [1]
70 µg/mL: MIC [5]
135 µg/mL: CC50 [4]
130 µg/mL: CC50 [22]
400 µg/mL: MCC [15] | MCC [27]
> 100 µg/mL: MIC [8] | MIC [12] | MIC [25]

Cc1ccn2c(COCCO)cnc2c1
200 µg/mL: MCC [15]
> 200 µg/mL: CC50 [4] | MIC [5] | MIC [6] | MIC [14] | MIC [18] | MIC [19] | MIC [20] | CC50 [22] | MIC [24] | MIC [26] | MCC [27]
> 40 µg/mL: MCC [1] | IC50 [2] | IC50 [7] | IC50 [9] | IC50 [11] | IC50 [16] | MCC [21] | IC50 [23]
> 400 µg/mL: MIC [3] | MIC [8] | MCC [10] | MIC [12] | MIC [13] | MIC [17] | MIC [25]

Cc1ccn2c(CSCCO)cnc2c1
7 µg/mL: IC50 [7]
10 µg/mL: MCC [15] | IC50 [23]
> 100 µg/mL: MIC [8] | MIC [12] | MIC [13] | MIC [17] | MIC [19] | MIC [25] | MIC [26]
> 200 µg/mL: MIC [3] | MCC [10]
100 µg/mL: MCC [27]
> 10 µg/mL: IC50 [2] | MIC [6] | IC50 [11] | MIC [18] | MIC [20]
> 40 µg/mL: MIC [14]
70 µg/mL: CC50 [4] | MIC [5] | CC50 [22] | MIC [24]
4 µg/mL: IC50 [9]
6 µg/mL: IC50 [16]
40 µg/mL: MCC [1] | MCC [21]
